Data from US6667341B2, “Delta dicarbonyl compounds and methods for using the same” (Beacon Laboratories, Inc., priority 2000, dated 2003).

Test system: PC-3 prostate cancer cells
Assay: EDR anti-proliferation assay (3H-thymidine incorporation, soft agar), PC-3
Assay type: cell-based
Details: PC-3 cell line; five days incubation; 3H-TdR incorporation; read-out: PC-3 or MCF-7* IC50
Description: (§1) Compounds prepared according to Examples 1-7 were tested for anti-proliferation against PC-3 prostate or MCF-7 breast cancer cells. The specific compounds tested include N-methyl-2-(2-methoxyethoxy)acetamidomethyl butyrate; N-methylbutyramidomethyl cinnamate; N-methylcinnamamidomethyl butyrate; cinnamoyloxymethyl thiobutyrate; butyroyloxymethyl thiocinnamate; bis(thiobutyl)methane; 3-oxohexyl cinnamate; and propionoyloxymethyl propionate. Butyric acid and trichostatin, a potent HDAC inhibitor, were used as reference compounds. Both compounds were purchased from Sigma-Aldrich, Milwaukee, Wis.
The PC-3 cell line was maintained in RPMI supplemented with 10% fetal calf serum and antibiotics. The EDR assay was performed as described by Kern and Weisenthal in “Highly Specific Prediction of Antineoplastic Drug Resistance With An In Vitro Assay Using Suprapharmacologic Drug Exposures,” J. Nat. Cancer Inst., 82:582-588 (1990); and Fruehauf and Bosanquet, “In vitro Determination of Drug Response: A Discussion of Clinical Applications,” PPO Updates 7(12):1-16 (1993). Cells were suspended in 0.12% soft agar in complete medium and plated (2,000 cells per well, as determined by preliminary experiments) in different drug concentrations onto a 0.4% agarose underlayer in 24-well plates. Plating cells on agarose underlayers supports the proliferation only of the transformed cells, ensuring that the growth signal stems from the malignant component of the tumor.
All compounds were dissolved in DMSO to 200× stock solutions. Stock solutions were diluted to 20× working solutions using the tissue culture medium, serially diluted and added to the 24-well plates. The concentration range was 0.001 μM to 0.3 μM for trichostatin and 10 μM-1,000 μM for the other compounds. No significant changes in pH of the culture medium were observed under the above conditions. Diluent control wells contained PC3 cells treated with DMSO, at the dilutions used for appropriate drug treatment. All experimental points were represented by two separate wells (duplicates). Positive controls were determined using at least two wells treated with an extremely high dose of cisplatin, an anti-cancer agent. Four wells containing tumor cells that were not treated with drugs served as negative controls in each experiment.
Cells were incubated with drugs under standard culture conditions for five days. Cultures were pulsed with tritiated thymidine (^3H-TdR, New Life Science Products, Boston, Mass.) at 5 μCi per well for the last 48 hours of the culture period.
(§2) Cell culture plates were then heated to 90° C. to liquefy the agarose, and cells were harvested onto glass fiber filters, which were then placed into counting vials containing liquid scintillation fluid. The radioactivity trapped on the filters was counted with a Beckman scintillation counter. The fraction of surviving cells was determined by comparing ^3H-TdR incorporation in treated (experimental points) and untreated (negative control) wells. All drug concentrations are presented as μM, allowing for normalization of drug response curves and direct comparison of the effects of the drugs. Microsoft Excel was used to organize the raw data on EDR experiments, and the SigmaPlot program was utilized to generate drug response curves. All drug response curves were as approximated as sigmoidal equations (characteristic for typical drug response curves) to fit the data. IC50 values were determined using the approximated sigmoidal curves and expressed as μM. Table 12 provides the PC-3 or MCF-7 IC50 data for each of the compounds tested.

Compound	IC50
CCCC(=O)SCSC(=O)CCC	40 µM
CCCC(=O)CCOC(=O)C=Cc1ccccc1 [3-oxohexyl cinnamate, 3-Oxohexyl Cinnamate]	40 µM
CCCC(=O)N(C)COC(=O)C=Cc1ccccc1 [N-methylbutyramidomethyl cinnamate, N-Methylbutyramidomethyl Cinnamate]	100 µM
CCCC(=O)O [butyric acid, reference compound]	> 2000 µM

Results, then the compound that gave them:

IC50	Compound
36 µM	CCCC(=O)OCN(C)C(=O)COCCOC [N-Methyl-2-(2-methoxyethoxy)acetamidomethyl Butyrate]
20 µM	CCCC(=O)OCN(C)C(=O)C=Cc1ccccc1 [N-methylcinnamamidomethyl butyrate, N-Methylcinnamamidomethyl Butyrate]
30 µM	CCCC(=O)OCOC(=S)C=Cc1ccccc1 [butyroyloxymethyl thiocinnamate, Butyroyloxymethyl Thiocinnamate]
30 µM	CCCC(=S)OCOC(=O)C=Cc1ccccc1 [cinnamoyloxymethyl thio-butyrate, Cinnamoyloxymethyl Thiobutyrate]
0.005 µM	CC(/C=C/C(=O)NO)=C\[C@@H](C)C(=O)c1ccc(N(C)C)cc1 [trichostatin, reference compound]

Test system: MCF-7 breast cancer cells
Assay: Anti-proliferation assay, MCF-7
Assay type: cell-based
Details: Homo sapiens, MCF7; value marked *: obtained from MCF-7 cell line; read-out: PC-3 or MCF-7* IC50
Description: as §1
as §2, with “Microsoft Excel was used to organize the raw data on EDR experiments, and the SigmaPlot program was utilized to generate drug response curves. All drug response curves were as approximated as sigmoidal equations (characteristic for typical drug response curves) to fit the data.” left out, “Table 12 provides the PC-3 or MCF-7 IC50 data for each of the compounds tested.” left out

IC50	Compound
50 µM	CCC(=O)OCOC(=S)CC [propionoyloxymethyl thiopropionate, Propionoyloxymethyl Thiopropionate]
